Values after ≈ are worked out from the molar mass of the structure shown.
Columns and labels:
Type in all cases: cell-based
[1] = tested on: Mannheimia haemolytica MH 6357 (M7/2, reference strain, cattle infection strain); assay: MIC, broth-microdilution (CLSI VET01-A4), strain MH 6357; settings: Mannheimia haemolytica strain MH 6357, broth-microdilution; unit assumed
In short: (§1)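 Doubling dilution series in trays; visual read, MIC = lowest conc. with no visible turbidity; interpretation per CLSI VET01-S3.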

[2] = tested on: Mannheimia haemolytica MH 6374 (ATCC 33396, reference strain); assay: MIC, broth-microdilution (CLSI VET01-A4), strain MH 6374; settings: Mannheimia haemolytica strain MH 6374, broth-microdilution; unit assumed
In short: as §1

[3] = tested on: Mannheimia haemolytica MH 12587 (1071, BRD field isolate, macrolide-resistance: erm+, E+); assay: MIC, broth-microdilution (CLSI VET01-A4), strain MH 12587; settings: Mannheimia haemolytica strain MH 12587, broth-microdilution; unit assumed
In short: as §1

[4] = tested on: Pasteurella multocida PM 12080 (IV102277-0093, BRD field isolate); assay: MIC, broth-microdilution (CLSI VET01-A4), strain PM 12080; settings: Pasteurella multocida strain PM 12080, broth-microdilution; unit assumed
In short: as §1

[5] = tested on: Mannheimia haemolytica MH 13093 (XB0472-6014.1, BRD field isolate); assay: MIC, broth-microdilution (CLSI VET01-A4), strain MH 13093; settings: Mannheimia haemolytica strain MH 13093, broth-microdilution; unit assumed
In short: as §1

[6] = tested on: Mannheimia haemolytica MH 10720 (154, BRD field isolate); assay: MIC, broth-microdilution (CLSI VET01-A4), strain MH 10720; settings: Mannheimia haemolytica strain MH 10720, broth-microdilution; unit assumed
In short: as §1

[7] = tested on: Pasteurella multocida PM 6267 (P 2225 (L386), reference strain, mouse infection strain); assay: MIC, broth-microdilution (CLSI VET01-A4), strain PM 6267; settings: Pasteurella multocida strain PM 6267, broth-microdilution; unit assumed
In short: as §1

[8] = tested on: Pasteurella multocida PM 6391 (ATCC 43137, reference strain); assay: MIC, broth-microdilution (CLSI VET01-A4), strain PM 6391; settings: Pasteurella multocida strain PM 6391, broth-microdilution; unit assumed
In short: as §1

[9] = tested on: Pasteurella multocida PM 10775 (080130003051, BRD field isolate); assay: MIC, broth-microdilution (CLSI VET01-A4), strain PM 10775; settings: Pasteurella multocida strain PM 10775, broth-microdilution; unit assumed
In short: as §1

[10] = tested on: Mannheimia haemolytica MH 13065 (XB0446-6003.9, BRD field isolate); assay: MIC, broth-microdilution (CLSI VET01-A4), strain MH 13065; settings: Mannheimia haemolytica strain MH 13065, broth-microdilution; unit assumed
In short: as §1

SMILES | MIC MH 6357 [1] [mg/L] | MIC MH 6374 [2] [mg/L] | MIC MH 12587 [3] [mg/L] | MIC PM 12080 [4] [mg/L] | MIC MH 13093 [5] [mg/L] | MIC MH 10720 [6] [mg/L] | MIC PM 6267 [7] [mg/L] | MIC PM 6391 [8] [mg/L] | MIC PM 10775 [9] [mg/L] | MIC MH 13065 [10] [mg/L]
COCCNCc1ccc(C#Cc2ccc(C(=O)N[C@H](C(=O)NO)C(C)(C)SC)cc2)cn1 [Compound 337] | 3.1 (≈ 6.59 µM) | 3.1 (≈ 6.59 µM) | 6.3 (≈ 13.4 µM) | 0.8 (≈ 1.7 µM) | 3.1 (≈ 6.59 µM) | 0.8 (≈ 1.7 µM) | 3.1 (≈ 6.59 µM) | 1.6 (≈ 3.4 µM) | 0.2 (≈ 0.425 µM) | 6.3 (≈ 13.4 µM)
CC(C)([C@H](NC(=O)c1ccc(C#Cc2ccc(CNCc3cccnc3)cc2)cc1)C(=O)NO)S(C)(=O)=O [C.267] | 0.8 (≈ 1.5 µM) | 0.4 (≈ 0.748 µM) | 1.6 (≈ 2.99 µM) | ≤ 0.1 | 0.8 (≈ 1.5 µM) | ≤ 0.1 | ≤ 0.1 | ≤ 0.1 | ≤ 0.1 | 0.8 (≈ 1.5 µM)
COc1ccc(CNCc2ccc(C#Cc3ccc(C(=O)N[C@H](C(=O)NO)C(C)(C)O)cc3)cc2)cc1 [Compound 224] | 0.8 (≈ 1.59 µM) | 0.8 (≈ 1.59 µM) | 1.6 (≈ 3.19 µM) | ≤ 0.1 | 0.8 (≈ 1.59 µM) | ≤ 0.1 | ≤ 0.1 | 0.4 (≈ 0.797 µM) | ≤ 0.1 | 0.8 (≈ 1.59 µM)
CC(C)(O)[C@H](NC(=O)c1ccc(C#Cc2ccc(CNC3CCCC3)cc2)cc1)C(=O)NO [Compound 227] | 12.5 (≈ 27.8 µM) | 12.5 (≈ 27.8 µM) | 25 (≈ 55.6 µM) | 0.8 (≈ 1.78 µM) | 12.5 (≈ 27.8 µM) | 1.6 (≈ 3.56 µM) | 0.4 (≈ 0.89 µM) | 0.8 (≈ 1.78 µM) | 0.2 (≈ 0.445 µM) | 6.3 (≈ 14 µM)
CC(=O)C(NC(=O)c1ccc(C#Cc2ccc(CNCc3nccs3)cc2)cc1)C(=O)NO (centres unmarked) [Compound 414] | 0.8 (≈ 1.73 µM) | 1.6 (≈ 3.46 µM) | 0.4 (≈ 0.865 µM) | ≤ 0.1 | 1.6 (≈ 3.46 µM) | 0.8 (≈ 1.73 µM) | 6.3 (≈ 13.6 µM) | ≤ 0.1 | 0.4 (≈ 0.865 µM) | 0.8 (≈ 1.73 µM)
CC1CN(Cc2ccc(C#Cc3ccc(C(=O)N[C@@H](CO)C(=O)NO)cc3)cc2)CC(C)O1 (some centres unmarked) [Compound 155] | 12.5 (≈ 27.7 µM) | 12.5 (≈ 27.7 µM) | 25 (≈ 55.4 µM) | 0.4 (≈ 0.886 µM) | 25 (≈ 55.4 µM) | 1.6 (≈ 3.54 µM) | ≤ 0.1 | 0.4 (≈ 0.886 µM) | ≤ 0.1 | 12.5 (≈ 27.7 µM)
CCCNCc1ccc(C#Cc2ccc(C(=O)N[C@H](C(=O)NO)C(C)C)cc2)cc1 [Compound 206] | 3.1 (≈ 7.61 µM) | 3.1 (≈ 7.61 µM) | 6.3 (≈ 15.5 µM) | 0.2 (≈ 0.491 µM) | 6.3 (≈ 15.5 µM) | 0.8 (≈ 1.96 µM) | ≤ 0.1 | 0.4 (≈ 0.982 µM) | ≤ 0.1 | 3.1 (≈ 7.61 µM)
CC(C)([C@H](NC(=O)c1ccc(C#Cc2ccc(CNCc3nccs3)nc2)cc1)C(=O)NO)S(C)(=O)=O [Compound 374] | 0.8 (≈ 1.48 µM) | 0.8 (≈ 1.48 µM) | 3.1 (≈ 5.72 µM) | ≤ 0.1 | 3.1 (≈ 5.72 µM) | 0.4 (≈ 0.738 µM) | 0.2 (≈ 0.369 µM) | 0.2 (≈ 0.369 µM) | ≤ 0.1 | 1.6 (≈ 2.95 µM)
COCC(C)NCc1ccc(C#Cc2ccc(C(=O)N[C@@H](CO)C(=O)NO)cc2)cc1 (some centres unmarked) [Compound 164] | 6.3 (≈ 14.8 µM) | 12.5 (≈ 29.4 µM) | 25 (≈ 58.8 µM) | 1.6 (≈ 3.76 µM) | 25 (≈ 58.8 µM) | 1.6 (≈ 3.76 µM) | 0.4 (≈ 0.94 µM) | 1.6 (≈ 3.76 µM) | ≤ 0.1 | 12.5 (≈ 29.4 µM)
CC(C)([C@H](NC(=O)c1ccc(C#Cc2ccc(CNC3CCC3)cc2)cc1)C(=O)NO)S(C)(=O)=O [Compound 263] | 6.3 (≈ 12.7 µM) | 3.1 (≈ 6.23 µM) | 6.3 (≈ 12.7 µM) | 0.2 (≈ 0.402 µM) | 3.1 (≈ 6.23 µM) | 0.8 (≈ 1.61 µM) | ≤ 0.1 | 0.4 (≈ 0.804 µM) | ≤ 0.1 | 3.1 (≈ 6.23 µM)
CC(C)([C@H](NC(=O)c1ccc(C#Cc2ccc(CNCC#N)nc2)cc1)C(=O)NO)S(C)(=O)=O [Compound 372] | 6.3 (≈ 13 µM) | 12.5 (≈ 25.9 µM) | 25 (≈ 51.7 µM) | 0.8 (≈ 1.65 µM) | 25 (≈ 51.7 µM) | 3.1 (≈ 6.41 µM) | 1.6 (≈ 3.31 µM) | 1.6 (≈ 3.31 µM) | 0.4 (≈ 0.827 µM) | 12.5 (≈ 25.9 µM)
